ChEMBL document CHEMBL5620355, “Discovery of intracellular self-assembly protein degraders driven by tumor-specific activatable bioorthogonal reaction” (Eur J Med Chem, 2023)
Active and inactive are the calls of the source. The calls are words filed in the database; no cut-off is given here.

Key:
HEK293 [1] = assay: Cytotoxicity against HEK293 cells at low concentration incubated for 48 hrs in presence of 4-(4-(3-(4-chloro-3-(trifluoromethyl)phenyl)ureido)phenoxy)-N-(prop-2-yn-1-yl)picolinamide by MTT assay; type: toxicity, cell-based; settings: human, hek293, 48 h
[2] = target: T1, Ephrin type-B receptor 4 (Homo sapiens) (UniProt P54760); assay: Induction of EphB4 degradation in human U87 cells at 10 uM incubated for 48 hrs in presence of 4-(4-(3-(4-chloro-3-(trifluoromethyl)phenyl)ureido)phenoxy)-N-(prop-2-yn-1-yl)picolinamide by Western blot analysis; type: cell-based
T1 sequence (whole entry): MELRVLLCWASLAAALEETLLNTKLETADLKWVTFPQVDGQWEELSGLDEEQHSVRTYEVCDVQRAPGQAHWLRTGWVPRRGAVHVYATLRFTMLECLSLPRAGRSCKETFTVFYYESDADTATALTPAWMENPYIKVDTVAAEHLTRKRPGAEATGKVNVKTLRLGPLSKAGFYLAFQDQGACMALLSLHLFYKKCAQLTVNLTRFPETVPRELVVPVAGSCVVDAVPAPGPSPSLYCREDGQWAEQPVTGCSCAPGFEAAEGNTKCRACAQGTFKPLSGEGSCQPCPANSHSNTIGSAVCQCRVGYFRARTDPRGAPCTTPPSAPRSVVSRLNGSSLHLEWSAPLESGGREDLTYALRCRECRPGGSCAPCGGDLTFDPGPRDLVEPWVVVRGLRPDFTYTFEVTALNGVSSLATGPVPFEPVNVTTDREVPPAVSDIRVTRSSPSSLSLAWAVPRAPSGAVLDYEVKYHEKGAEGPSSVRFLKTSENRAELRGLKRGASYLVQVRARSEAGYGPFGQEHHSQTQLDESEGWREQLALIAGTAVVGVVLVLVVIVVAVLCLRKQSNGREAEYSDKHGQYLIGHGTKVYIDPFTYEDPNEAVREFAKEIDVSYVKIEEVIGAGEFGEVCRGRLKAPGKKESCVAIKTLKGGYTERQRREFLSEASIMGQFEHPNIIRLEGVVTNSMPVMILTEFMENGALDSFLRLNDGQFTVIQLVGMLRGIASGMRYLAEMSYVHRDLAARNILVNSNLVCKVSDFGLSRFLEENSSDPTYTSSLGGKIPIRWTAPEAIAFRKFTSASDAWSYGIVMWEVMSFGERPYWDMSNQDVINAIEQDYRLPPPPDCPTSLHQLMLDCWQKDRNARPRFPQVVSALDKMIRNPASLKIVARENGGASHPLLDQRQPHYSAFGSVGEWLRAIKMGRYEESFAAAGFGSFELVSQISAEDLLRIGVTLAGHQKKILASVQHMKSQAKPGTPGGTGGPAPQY

U-87 MG [3] = assay: Induction of apoptosis in human U87 cells assessed as viable cells at 20 uM incubated for 48 hrs in presence of 4-(4-(3-(4-chloro-3-(trifluoromethyl)phenyl)ureido)phenoxy)-N-(prop-2-yn-1-yl)picolinamide by Annexin V-FLTC/PI staining based flow cytometry (reference value: 86.74 %); type: functional, U-87MG ATCC; settings: read-out: Activity
[4] = target: Serine/threonine-protein kinase B-raf (Homo sapiens) (UniProt P15056); assay: Induction of BRAF degradation in human U87 cells at 10 uM incubated for 48 hrs by Western blot analysis; type: cell-based
[5] = target: Vascular endothelial growth factor receptor 2 (Homo sapiens) (UniProt P35968); assay: Induction of VEGFR2 degradation in human U87 cells at 10 uM incubated for 48 hrs in presence of 4-(4-(3-(4-chloro-3-(trifluoromethyl)phenyl)ureido)phenoxy)-N-(prop-2-yn-1-yl)picolinamide by Western blot analysis; type: cell-based
U-87 MG [6] = assay: Induction of apoptosis in human U87 cells assessed as early apoptotic cells at 1 uM incubated for 48 hrs in presence of 4-(4-(3-(4-chloro-3-(trifluoromethyl)phenyl)ureido)phenoxy)-N-(prop-2-yn-1-yl)picolinamide by Annexin V-FLTC/PI staining based flow cytometry (reference value: 8.95 %); type: functional, U-87MG ATCC
U-87 MG [7] = assay: Induction of apoptosis in human U87 cells assessed as necrotic cells at 10 uM incubated for 48 hrs in presence of 4-(4-(3-(4-chloro-3-(trifluoromethyl)phenyl)ureido)phenoxy)-N-(prop-2-yn-1-yl)picolinamide by Annexin V-FLTC/PI staining based flow cytometry (reference value: 0.60 %); type: functional, U-87MG ATCC
U-87 MG [8] = assay: Induction of apoptosis in human U87 cells assessed as early apoptotic cells at 20 uM incubated for 48 hrs in presence of 4-(4-(3-(4-chloro-3-(trifluoromethyl)phenyl)ureido)phenoxy)-N-(prop-2-yn-1-yl)picolinamide by Annexin V-FLTC/PI staining based flow cytometry (reference value: 8.95 %); type: functional, U-87MG ATCC
[9] = target: Serine/threonine-protein kinase B-raf (Homo sapiens) (UniProt P15056); assay: Induction of BRAF degradation in human U87 cells at 10 uM incubated for 48 hrs in presence of 4-(4-(3-(4-chloro-3-(trifluoromethyl)phenyl)ureido)phenoxy)-N-(prop-2-yn-1-yl)picolinamide by Western blot analysis; type: cell-based
U-87 MG [10] = assay: Induction of apoptosis in human U87 cells assessed as early apoptotic cells at 5 uM incubated for 48 hrs in presence of 4-(4-(3-(4-chloro-3-(trifluoromethyl)phenyl)ureido)phenoxy)-N-(prop-2-yn-1-yl)picolinamide by Annexin V-FLTC/PI staining based flow cytometry (reference value: 8.95 %); type: functional, U-87MG ATCC
HEK293 [11] = assay: Cytotoxicity against HEK293 cells at high concentration incubated for 48 hrs in presence of 4-(4-(3-(4-chloro-3-(trifluoromethyl)phenyl)ureido)phenoxy)-N-(prop-2-yn-1-yl)picolinamide by MTT assay; type: toxicity, cell-based; settings: human, hek293, 48 h
[12] = target: Vascular endothelial growth factor receptor 2 (Homo sapiens) (UniProt P35968); assay: Induction of VEGFR2 degradation in human U87 cells at 10 uM incubated for 48 hrs by Western blot analysis; type: cell-based
[13] = target: Vascular endothelial growth factor receptor 2 (Homo sapiens) (UniProt P35968); assay: Induction of VEGFR2 degradation in human U87 cells at 10 uM incubated for 48 hrs in presence of 4-azido-N-(2-(2,6-dioxopiperidin-3-yl)-1,3-dioxoisoindolin-4-yl)butanamide by Western blot analysis; type: cell-based
U-87 MG [14] = assay: Induction of apoptosis in human U87 cells assessed as late apoptotic cells at 20 uM incubated for 48 hrs in presence of (2S,4R)-1-((S)-2-(5-azidopentanamido)-3,3-dimethylbutanoyl)-4-hydroxy-N-(4-(4-methylthiazol-5-yl)benzyl)pyrrolidine-2-carboxamide by Annexin V-FLTC/PI staining based flow cytometry (reference value: 3.71 %); type: functional, U-87MG ATCC
U-87 MG [15] = assay: Antiproliferative activity against human U87 cells incubated for 48 hrs in presence of (2S,4R)-1-((S)-2-(5-azidopentanamido)-3,3-dimethylbutanoyl)-4-hydroxy-N-(4-(4-methylthiazol-5-yl)benzyl)pyrrolidine-2-carboxamide by MTT assay; type: functional, cell-based, U-87MG ATCC
U-87 MG [16] = assay: (§1) Induction of apoptosis in human U87 cells assessed as necrotic cells at 1 uM incubated for 48 hrs in presence of (2S,4R)-1-((S)-2-(5-azidopentanamido)-3,3-dimethylbutanoyl)-4-hydroxy-N-(4-(4-methylthiazol-5-yl)benzyl)pyrrolidine-2-carboxamide by Annexin V-FLTC/PI staining based flow cytometry (reference value: 0.60 %); type: functional, U-87MG ATCC
U-87 MG [17] = assay: Induction of apoptosis in human U87 cells assessed as viable cells at 1 uM incubated for 48 hrs in presence of (2S,4R)-1-((S)-2-(5-azidopentanamido)-3,3-dimethylbutanoyl)-4-hydroxy-N-(4-(4-methylthiazol-5-yl)benzyl)pyrrolidine-2-carboxamide by Annexin V-FLTC/PI staining based flow cytometry (reference value: 86.74 %); type: functional, U-87MG ATCC; settings: read-out: Activity
U-87 MG [18] = assay: as §1, with “at 20” for “at 1”; type: functional, U-87MG ATCC

Sequence of Vascular endothelial growth factor receptor 2 (Homo sapiens) (P35968 whole entry): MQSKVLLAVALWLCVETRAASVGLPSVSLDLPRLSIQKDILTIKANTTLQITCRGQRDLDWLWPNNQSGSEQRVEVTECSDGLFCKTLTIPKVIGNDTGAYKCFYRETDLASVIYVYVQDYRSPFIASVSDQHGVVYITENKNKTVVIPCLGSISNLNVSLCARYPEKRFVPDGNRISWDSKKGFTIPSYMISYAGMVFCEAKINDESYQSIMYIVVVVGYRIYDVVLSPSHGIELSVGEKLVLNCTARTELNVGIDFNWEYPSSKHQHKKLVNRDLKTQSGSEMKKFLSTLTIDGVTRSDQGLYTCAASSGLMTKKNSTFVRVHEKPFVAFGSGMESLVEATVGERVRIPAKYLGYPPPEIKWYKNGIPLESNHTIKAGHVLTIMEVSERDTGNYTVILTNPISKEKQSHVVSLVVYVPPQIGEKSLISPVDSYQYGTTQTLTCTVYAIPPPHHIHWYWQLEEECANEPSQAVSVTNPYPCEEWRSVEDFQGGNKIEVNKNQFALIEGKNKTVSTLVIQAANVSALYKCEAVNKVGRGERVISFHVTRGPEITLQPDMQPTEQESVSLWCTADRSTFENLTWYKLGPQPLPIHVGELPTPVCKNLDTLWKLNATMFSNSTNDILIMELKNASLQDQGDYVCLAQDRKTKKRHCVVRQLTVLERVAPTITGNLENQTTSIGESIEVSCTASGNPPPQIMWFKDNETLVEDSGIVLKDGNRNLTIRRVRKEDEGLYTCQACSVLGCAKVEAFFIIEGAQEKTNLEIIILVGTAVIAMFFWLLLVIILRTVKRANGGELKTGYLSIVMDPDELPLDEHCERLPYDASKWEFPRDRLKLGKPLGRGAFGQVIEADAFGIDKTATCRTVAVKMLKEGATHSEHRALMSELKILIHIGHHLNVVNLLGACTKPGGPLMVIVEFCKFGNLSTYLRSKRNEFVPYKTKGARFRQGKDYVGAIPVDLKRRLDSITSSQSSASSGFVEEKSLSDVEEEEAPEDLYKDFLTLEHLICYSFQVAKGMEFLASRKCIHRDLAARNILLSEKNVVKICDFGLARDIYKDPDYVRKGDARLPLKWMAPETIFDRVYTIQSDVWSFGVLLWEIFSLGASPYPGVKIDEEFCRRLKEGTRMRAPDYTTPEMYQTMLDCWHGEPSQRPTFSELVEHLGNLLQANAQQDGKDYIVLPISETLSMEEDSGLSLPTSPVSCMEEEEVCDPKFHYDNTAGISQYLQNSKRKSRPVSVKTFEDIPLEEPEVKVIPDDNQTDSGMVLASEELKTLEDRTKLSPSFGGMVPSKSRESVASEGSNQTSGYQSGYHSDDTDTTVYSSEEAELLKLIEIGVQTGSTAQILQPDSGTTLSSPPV
Sequence of Serine/threonine-protein kinase B-raf (Homo sapiens) (P15056 whole entry): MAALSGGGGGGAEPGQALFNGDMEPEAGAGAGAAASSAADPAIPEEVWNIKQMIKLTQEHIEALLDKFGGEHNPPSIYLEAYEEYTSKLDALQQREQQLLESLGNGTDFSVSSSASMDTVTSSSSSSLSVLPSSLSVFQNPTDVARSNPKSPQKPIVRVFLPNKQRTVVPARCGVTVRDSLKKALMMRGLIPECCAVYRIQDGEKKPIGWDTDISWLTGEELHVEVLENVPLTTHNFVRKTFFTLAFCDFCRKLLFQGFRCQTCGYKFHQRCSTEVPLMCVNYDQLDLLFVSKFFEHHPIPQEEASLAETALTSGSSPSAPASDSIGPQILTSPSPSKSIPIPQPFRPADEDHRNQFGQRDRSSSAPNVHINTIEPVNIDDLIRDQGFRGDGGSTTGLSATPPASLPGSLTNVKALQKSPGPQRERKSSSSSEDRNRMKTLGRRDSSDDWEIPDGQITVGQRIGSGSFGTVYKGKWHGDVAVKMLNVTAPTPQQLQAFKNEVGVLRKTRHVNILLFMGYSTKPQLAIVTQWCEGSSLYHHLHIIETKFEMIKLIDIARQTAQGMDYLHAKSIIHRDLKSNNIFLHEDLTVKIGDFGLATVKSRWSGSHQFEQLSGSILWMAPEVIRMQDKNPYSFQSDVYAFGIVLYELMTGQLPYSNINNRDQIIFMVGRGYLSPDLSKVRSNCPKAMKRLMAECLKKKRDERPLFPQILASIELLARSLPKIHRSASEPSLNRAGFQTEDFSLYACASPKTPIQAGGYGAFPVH

| Structure (SMILES) | Activity (HEK293 [1]) | Activity [2] | viability at 20 µM (U-87 MG [3]) [%] | Activity [4] | Activity [5] | Activity (U-87 MG [6]) [%] | Activity (U-87 MG [7]) [%] | Activity (U-87 MG [8]) [%] | Activity [9] | Activity (U-87 MG [10]) [%] | Activity (HEK293 [11]) | Activity [12] | Activity [13] | Activity (U-87 MG [14]) [%] | IC50 (U-87 MG [15]) [µM] | Activity (U-87 MG [16]) [%] | viability at 1 µM (U-87 MG [17]) [%] | Activity (U-87 MG [18]) [%] |
| --- | --- | --- | --- | --- | --- | --- | --- | --- | --- | --- | --- | --- | --- | --- | --- | --- | --- | --- |
| [N-]=[N+]=NCCCC(=O)Nc1cccc2c1C(=O)N(C1CCC(=O)NC1=O)C2=O (stereo not drawn) | Non-Toxic | Active | 9.88 | Active | Active | 11.69 | 25.6 | 4.73 | Active | 0.05 | Toxic | Active | – | – | – | – | – | – |
| C#CCNC(=O)c1cc(Oc2ccc(NC(=O)Nc3ccc(Cl)c(C(F)(F)F)c3)cc2)ccn1 | – | – | – | – | – | – | – | – | – | – | – | – | Active | 79.04 | 16 | 1.26 | 81.6 | 6.36 |
